Consider 1 compound from patent US20100061994A1, “MEDICAL USES OF 39-DESMETHOXYRAPAMYCIN AND ANALOGUES THEREOF” (priority 2005, published 2010).

In this test the target is FKBP12 (Homo sapiens, UniProt P62942). In words: In vitro FKBP12 binding assay (GdnHCl unfolding). The following applies: relative to literature Kd of rapamycin 0.2 nM. The source says: FKBP12 reversibly unfolds in the chemical denaturant guandinium hydrochloride (GdnHCl) and the unfolding can be monitored by the change in the intrinsic fluorescence of the protein (Main et al, 1998). Ligands which specifically bind and stabilise the native state of FKBP12 shift the denaturation curve such that the protein unfolds at higher concentrations of chemical denaturant (Main et al, 1999). From the difference in stability, the ligand-binding constant can be determined using equation 1.
Chain of FKBP12 (P62942 whole entry, species assumed): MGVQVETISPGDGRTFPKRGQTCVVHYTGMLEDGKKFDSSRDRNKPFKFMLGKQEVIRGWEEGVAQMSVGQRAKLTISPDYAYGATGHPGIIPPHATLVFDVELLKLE
where ΔGapp is the apparent difference in free energy of unfolding between free and ligand-bound forms, ΔGD−N^H^2^O is the free energy of unfolding in water of free protein, [L] the concentration of ligand and kd the dissociation constant for the protein-ligand complex (Meiering et al, 1992). The free energy of unfolding can be related to the midpoint of the unfolding transition using the following equation: […]
where mD−N is a constant for a given protein and given denaturant and which is proportional to the change in degree of exposure of residues on unfolding (Tanford 1968 and Tanford 1970), and [D]50% is the concentration of denaturant corresponding to the midpoint of unfolding.
where <mD−N> is the average m-value of the unfolding transition and Δ[D]50% the difference in midpoints for the rapamycin-FKBP12 unfolding transition and unknown-ligand-FKBP12 complex unfolding transition. Under conditions where [L]>Kd, then, ΔΔGD−N, can be related to the relative Kds of the two compounds through equation 4: […]

Regarding `COC1CC2CCC(C)C(O)(O2)C(=O)C(=O)N2CCCCC2C(=O)OC(C(C)CC2CCC(O)CC2)CC(=O)C(C)C=C(C)C(O)C(OC)C(=O)C(C)CC(C)C=CC=CC=C1C` (stereo not shown) [39-desmethoxyrapamycin], the equilibrium dissociation constant (Kd) came out at 0.7 nM.

As usually defined, the Kd is the constant that tells how readily two partners part at equilibrium.
